The subject of assay [1] is DRD2-expressing 293T cells vs untransduced 293T cells. The assay can be described thus: Flow cytometry quantification of probe labeling of cells. It is filed as cell-based, human. The following applies: probe 100 nm, photo-cross-linked, Alexa Fluor 555 azide; P < 0.0001, two-way ANOVA. Here is the method:
Flow cytometry was used to quantify the number of cells that were successfully labeled by probes 5 and 7 as these were the most promising biochemically and seemed to display the highest propensity for labeling DRD2-expressing cells. To perform the quantification, our 293T cell line-expressing DRD2 or unmodified 293T cells as a negative control were treated with probes at a 100 nm concentration, the lower concentration than the EC50 determination, likely due in large part to the covalent nature of the binding event versus the noncovalent EC50 assays. The probes were covalently cross-linked to the cells with UV, and the unbound probe was washed out. The azide-containing fluorescent dye was then clicked onto the probe, the unbound dye was washed out, and the cells were analyzed by flow cytometry (Figure 5a). […]
Figure 5 Flow cytometry quantification of probe labeling. […] The cells were then analyzed by flow cytometry. P values determined using two-way ANOVA in GraphPad; **** corresponds to P < 0.0001. […]
HEK293T cells and a stable HEK293T-derived cell line-expressing DRD2-Strep Tag II fusion were maintained in DMEM supplemented with 10% FBS, 100 U/mL penicillin, and 100 μg/mL streptomycin in a humidified atmosphere at 37 °C in 5% CO2. […] The cells were then washed 3 times with PBS with 5% BSA and analyzed with a BD Accuri C6 flow cytometer. […]
A general note: In flow cytometry, cells or beads pass a laser one at a time.

The next assay concerns the target DRD2 (Homo sapiens, UniProt P14416). The assay can be described thus: PRESTO-TANGO β-arrestin recruitment assay (HTLA cells transfected with DRD2-TANGO, luciferase readout). It is filed as cell-based. To be noted: for activity in β-arrestin recruitment (in words): PRESTO-TANGO; for EC50: PRESTO-TANGO β-arrestin recruitment, luciferase activity, Hill slope of 1.0; for difference in potency of probe vs parent compound: β-arrestin recruitment, probes vs their parent compounds. On the set-up: TEV protease site and fused transcription factor (TANGO module); expressed in transfected cells; host or cells: HTLA cells (gift of G. Barnea), transiently transfected. The source says: To characterize the response of the β-arrestin effector pathway to our ligands, we used the Parallel-Receptor-ome Expression and Screening via Transcriptional Output TANGO (PRESTO-TANGO) assay developed in the Roth lab.[44],[45] This assay uses luciferase activity to monitor β-arrestin recruitment by DRD2 (Figure 3a).
Figure 3 β-Arrestin recruitment analysis. (a) PRESTO-TANGO assay schematic: a ligand binds a chimeric DRD2 receptor, which then recruits β-arrestin fused with a TEV protease. The protease cuts a site between the receptor and a fused transcription factor, which then transits to the […] to initiate transcription of a luciferase gene. The luciferase activity is subsequently quantified.
HTLA cells were a gift from the laboratory of G. Barnea and were maintained in DMEM supplemented with 10% FBS, 100 U/mL penicillin, 100 μg/mL streptomycin, 2 μg/mL puromycin, 100 μg/mL hygromycin B, and 100 μg/mL G418 in a humidified atmosphere at 37 °C in 5% CO2. On day 1, cells were plated at a density of 1 × 10^5 cells/cm^2 in a black wall, clear-bottom 96-well plate (Nunc). The following day (day 2), cells were transfected with a 10× solution of 3:1 mixture of DRD2-TANGO/Optifect Transfection Reagent (Thermo) in unsupplemented DMEM. On day 3, 1× drug stimulation solutions were prepared in filter-sterilized unsupplemented DMEM. The transfection media was shaken or aspirated from the wells, and drug stimulation solutions were gently added. On day 4, drug solutions were removed from one well every 10 s (to maintain consistency of incubation time) and 50 μL per well of Bright-Glo solution (Promega) diluted 20-fold in HBSS was added. After incubation for 2 min at room temperature, luminescence was counted with an integration time of 10 s in a Spectramax i3x plate reader (Molecular Devices).

A word on the EC50: it is the midpoint of the concentration-response curve. Read a low EC50 as an effect from little substance.

DRD2, sequence (P14416 whole entry, the tested form may be a part): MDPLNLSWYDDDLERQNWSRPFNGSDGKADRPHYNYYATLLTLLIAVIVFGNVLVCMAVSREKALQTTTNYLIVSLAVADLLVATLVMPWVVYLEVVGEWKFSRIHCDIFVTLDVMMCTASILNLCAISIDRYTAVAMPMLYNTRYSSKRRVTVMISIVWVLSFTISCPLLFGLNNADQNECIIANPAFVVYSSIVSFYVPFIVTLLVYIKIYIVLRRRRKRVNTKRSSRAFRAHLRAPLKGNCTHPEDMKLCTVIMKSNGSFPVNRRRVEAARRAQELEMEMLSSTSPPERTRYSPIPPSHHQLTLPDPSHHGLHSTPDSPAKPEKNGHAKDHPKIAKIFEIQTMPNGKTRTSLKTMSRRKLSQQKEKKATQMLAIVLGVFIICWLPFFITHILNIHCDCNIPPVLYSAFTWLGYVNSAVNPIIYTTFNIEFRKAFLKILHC

With `C#CCOc1ccc(C(=O)c2ccc(CN[C@H]3CCc4nc(N)sc4C3)cc2)cc1` [Compound 7, (S)-(4-(((2-Amino-4,5,6,7-tetrahydrobenzo[d]thiazol-6-yl)amino)methyl)phenyl)(4-(prop-2-yn-1-yloxy)phenyl)methanone], in assay [1], the “labeling of cells expressing DRD2 vs cells that do not (flow cytometry)” value was “highly statistically significant increase in the labeling of cells expressing DRD2 over those that do not”. Also, on DRD2, the “activity in β-arrestin recruitment (in words)” value is listed as “low micromolar activity”, the EC50 came to 990 nM and the “difference in potency of probe vs parent compound” value is reported as around 1000 ×.
As to `C#CCOc1ccc(C(=O)c2ccc(CNCCc3cccc4c3CC(=O)N4)cc2)cc1` [Compound 5, 4-(2-((4-(4-(Prop-2-yn-1-yloxy)benzoyl)benzyl)amino)ethyl)indolin-2-one], the “labeling of cells expressing DRD2 vs cells that do not (flow cytometry)” value in assay [1] is on record as “highly statistically significant increase in the labeling of cells expressing DRD2 over those that do not”. Moreover, on DRD2, the “activity in β-arrestin recruitment (in words)” value is “low micromolar activity”, the EC50 was 1320 nM and the “difference in potency of probe vs parent compound” value is around 1000 ×.

Values taken from paper PMC9585581, “Developing Photoaffinity Probes for Dopamine Receptor D2 to Determine Targets of Parkinson’s Disease Drugs” (ACS Chemical Neuroscience, 2022).
